What all share (test): inhibition of tumour cell growth, NCI panel, 48 h
In assay [1] the test system is ACHN.
Assay [2] relates to BT-549.
In assay [3] the test system is EKVX.
Assay [4] relates to HCT-15.
Assay [5] relates to HOP-92.
The test system of assay [6] is HT-29.
Assay [7] deals with IGROV-1.
For assay [8], the system named is M14.
The test system of assay [9] is MCF7.
For assay [10], the system named is Malme-3M.
In assay [11] the test system is NCI-H226.
For assay [12], the system named is OVCAR-5.
Assay [13] deals with RXF 393.
The subject of assay [14] is SF-268.
In assay [15] the test system is SF-295.
For assay [16], the system named is SNB-19.
Assay [17] concerns UACC-62.
The subject of assay [18] is UO-31.
In assay [19] the test system is KM12.
In assay [20] the test system is OVCAR-4.

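The compound was tested at five concentrations on cells cultured in 96-well plates, with a 48-hour exposure period. GI50 marks 50% less growth.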 Active and inactive are the calls of the source. Cut-off read from the data, not from the text of the source: active = GI50 up to about 1.1 µM and inactive = higher.

`Cc1c(C)c(C)c(CC2(C)CSC2)c(CC2(C)CSC2)c1C`: the GI50 is > 100 µM (inactive) in [1]; > 100 µM (inactive) in [2]; > 100 µM (inactive) in assay [3]; more than 100 µM in assay [4]; > 100 µM (inactive) in assay [5]; > 100 µM (inactive) in [6]. The GI50 in [7], in assay [8], in [9], in [10], in assay [11] and in assay [12] was > 100 µM (inactive) throughout. The GI50 in assay [13], in assay [14], in [15], in assay [16], in assay [17] and in [18] was > 100 µM (inactive) throughout.

For the molecule `Cc1nnc(N)nc1/C=C\c1ccc(Cl)cc1Cl`, the GI50 is 36.4 µM (inactive) in [1]; 72.3 µM (inactive) in [2]; 39.5 µM (inactive) in assay [3]; 23.3 µM in assay [4]; 39.2 µM (inactive) in assay [5]; 20.6 µM (inactive) in [6]. The GI50 in assay [7] was 16.3 µM (inactive); in [19], 18.6 µM (inactive); in assay [8] it was 29.6 µM (inactive); in assay [9] it was 32.8 µM (inactive); in assay [10] it was 23.8 µM (inactive); in [11], 17.3 µM (inactive). In addition, the GI50 in [20] was 34.5 µM (inactive); in assay [12], 42.5 µM (inactive); in assay [13] it was 39.7 µM (inactive); in [14], 34.8 µM (inactive); in assay [15], 23.4 µM (inactive); in assay [16] it was 30.2 µM (inactive). Moreover, the GI50 in assay [17] is 30.8 µM (inactive); in assay [18], 54.2 µM (inactive).

Turning to `Cc1c(C)c2c(c(N)c1C#N)C(=O)N(NC(=O)c1ccccc1)C2=O`, the GI50 is > 100 µM (inactive) in [1]; > 100 µM (inactive) in [2]; 76.7 µM (inactive) in assay [3]; more than 100 µM in assay [4]; > 100 µM (inactive) in assay [5]; > 100 µM (inactive) in assay [7]. For the same molecule, the GI50 in assay [19], in assay [8], in assay [9], in assay [10], in assay [11] and in assay [20] was > 100 µM (inactive) throughout. The GI50 in assay [12], in assay [13], in [14], in [15], in assay [16] and in [17] was > 100 µM (inactive) throughout. For the same molecule, the GI50 in assay [18] was 36.1 µM (inactive).

Regarding `Cc1coc2c1CC1(C)C(CCC(O)C1C)C2` (stereo unspecified), the GI50 in assay [1] is > 100 µM (inactive); in assay [2], > 100 µM (inactive); in [3] it was > 100 µM (inactive); in assay [4], more than 100 µM; in assay [5], > 100 µM (inactive); in [6] it was > 100 µM (inactive). Further, the GI50 in assay [7], in assay [19], in assay [8], in assay [9], in [10] and in assay [11] was > 100 µM (inactive) throughout. Also, the GI50 in [20], in assay [12], in assay [13], in assay [14], in assay [15] and in assay [16] was > 100 µM (inactive) throughout. Besides, the GI50 in [17] is > 100 µM (inactive).

With `Cc1nc2ccc(S(=O)(=O)O)cc2c(=O)n1-c1ccc(C(=O)NN2C(=O)C(Cl)C2c2cccs2)cc1` (stereo unspecified), the GI50 in assay [1] is > 100 µM (inactive); in [2] it was > 100 µM (inactive); in assay [3], 18.5 µM (inactive); in assay [4] it was more than 100 µM; in assay [5], > 100 µM (inactive); in assay [6], > 100 µM (inactive). Further, the GI50 in assay [19] was > 100 µM (inactive); in assay [8], 18.2 µM (inactive); in assay [9], > 100 µM (inactive); in assay [10], > 100 µM (inactive); in [11], > 100 µM (inactive); in assay [20], 24.5 µM (inactive). In addition, the GI50 in assay [12] is > 100 µM (inactive); in assay [13], > 100 µM (inactive); in assay [14] it was 20.7 µM (inactive); in [15], > 100 µM (inactive); in assay [16] it was > 100 µM (inactive); in [17] it was > 100 µM (inactive). Besides, the GI50 in assay [18] is > 100 µM (inactive).

In the case of `CNc1ccc(C(=O)CC(O)CCC(C)C2OC(=O)CC(O)CC(=O)CC(O)CC(O)CC(O)CC(O)CC3(O)CC(O)C(C(=O)N4CCOCC4)C(CC(OC4OC(C)C(O)C(N)C4O)\C=C/C=C\C=C/C=C/C=C/C=C\C=C/C2C)O3)cc1` (stereo unspecified), the GI50 in [1] was 0.19 µM (active); in [2], 0.241 µM (active); in [4], 0.308 µM; in [5], 0.281 µM (active); in assay [6], 0.232 µM (active); in [7] it was 0.244 µM (active). In addition, the GI50 was 0.319 µM (active) in assay [19]; 0.328 µM (active) in assay [8]; 0.285 µM (active) in assay [9]; 0.137 µM (active) in assay [10]; 0.277 µM (active) in assay [11]; 0.228 µM (active) in [20]. Moreover, the GI50 in assay [12] is 0.607 µM (active); in assay [13], 0.318 µM (active); in assay [14] it was 0.218 µM (active); in assay [15], 0.446 µM (active); in assay [16], 0.365 µM (active); in assay [17] it was 0.258 µM (active). Further, the GI50 in [18] is 0.195 µM (active).

Take `OCC1CCCC1O` (stereo unspecified): the GI50 in assay [1] is > 100 µM (inactive); in assay [2], > 100 µM (inactive); in assay [4], more than 100 µM; in assay [5], > 100 µM (inactive); in [6], > 100 µM (inactive); in [7], > 100 µM (inactive). Further, the GI50 in [19], in [8], in assay [9], in assay [10], in assay [11] and in assay [20] was > 100 µM (inactive) throughout. Further, the GI50 in assay [12], in [13], in assay [14], in [15], in [16] and in assay [17] was > 100 µM (inactive) throughout. Besides, the GI50 in assay [18] was > 100 µM (inactive).

Consider `COC(=O)[C@H]1CO[C@@H](C(C)(C)C)N1C(=O)N1C=CC(=O)C[C@@H]1C`, for which the GI50 in assay [1], in assay [2], in assay [3], in assay [5], in [6] and in [7] was > 100 µM (inactive) each time. For the same molecule, the GI50 in [19], in [9], in assay [10], in assay [11], in assay [12] and in [13] was > 100 µM (inactive) each time. Besides, the GI50 in assay [14], in [15], in [17] and in assay [18] was > 100 µM (inactive) throughout.

Consider `COc1ccc(NC(C)=O)cc1N1C(=O)/C(=C\c2cc(OC)c(OC)c(OC)c2)SC1c1ccccc1` (stereo unspecified), for which the GI50 in [1] was 44.4 µM (inactive); in assay [2], 97.5 µM (inactive); in assay [3] it was 24.9 µM (inactive); in assay [4] it was 38.1 µM; in assay [5] it was 29.5 µM (inactive); in [6], 47.1 µM (inactive). For the same molecule, the GI50 in assay [7] was 23.8 µM (inactive); in assay [19], 40.6 µM (inactive); in assay [8] it was 49.8 µM (inactive); in assay [9], 28.2 µM (inactive); in assay [10], 47 µM (inactive); in assay [11], 50.9 µM (inactive). Further, the GI50 in assay [20] is 39 µM (inactive); in [12], > 100 µM (inactive); in [13], 33.5 µM (inactive); in assay [15], 52 µM (inactive); in assay [16], 83.4 µM (inactive); in [17], 67.9 µM (inactive). In assay [18], the GI50 was 22.1 µM (inactive).

Consider `COc1cc(C23OCC(Cc4cc5c(cc42)OCO5)C3CO)cc(OC)c1OC` (stereo unspecified), for which the GI50 in [1] was 7.13 µM (inactive); in assay [2], 56.6 µM (inactive); in [3] it was > 100 µM (inactive); in assay [4] it was 0.538 µM; in assay [5] it was > 100 µM (inactive); in assay [6], 5.64 µM (inactive). Also, the GI50 was 2.44 µM (inactive) in assay [7]; 0.215 µM (active) in assay [19]; 3.64 µM (inactive) in [8]; 0.21 µM (active) in assay [9]; 6.14 µM (inactive) in assay [10]; 3.85 µM (inactive) in assay [11]. Also, the GI50 in [20] is 41.1 µM (inactive); in [12], 6.81 µM (inactive); in assay [13] it was 2.02 µM (inactive); in assay [14], 4.82 µM (inactive); in [15], 0.266 µM (active); in [16], 3.14 µM (inactive). The GI50 in assay [18] was 8.95 µM (inactive).

In the case of `O=C1C(c2c(O)[nH]c3ccc(Cl)cc23)=Nc2ccccc21`, the GI50 in assay [1] was 3.86 µM (inactive); in [2] it was 66.4 µM (inactive); in assay [3], 5.07 µM (inactive); in assay [4], 7.73 µM; in assay [5], 8.02 µM (inactive); in assay [6], 5.09 µM (inactive). Also, the GI50 in assay [7] was 0.352 µM (active); in assay [19], 3.08 µM (inactive); in [8] it was 6.85 µM (inactive); in assay [9], 12.2 µM (inactive); in assay [10] it was 5.68 µM (inactive); in assay [11], 6.05 µM (inactive). For the same molecule, the GI50 is 2.2 µM (inactive) in [20]; 8.11 µM (inactive) in [12]; 2.49 µM (inactive) in assay [13]; 5.36 µM (inactive) in [14]; 10.4 µM (inactive) in assay [15]; 10.3 µM (inactive) in assay [16]. The GI50 in assay [17] is 11.8 µM (inactive).

The values are drawn from ChEMBL document CHEMBL1201862, “PubChem BioAssay data set” (2004).
